Columns and labels:
Artemia salina = Artemia salina lethality bioassay; type: in vivo; conditions: even at 50 μM, 48 h of exposure
Protocol: General toxicity to non-target species was evaluated using the brine shrimp (Artemia salina) lethality test (Meyer et al., 1982). A. salina cysts were allowed to hatch in nutrient-enriched seawater for approximately 48 hours at 25° C. Newly hatched instar I nauplii were harvested for toxicity test performed in 96-wells microplates with eight replicates per condition and 15-20 nauplii per well. Test solutions of the most promising sulfated antifouling compounds (50 and 25 μM) were prepared in filtered seawater. K2Cr2O7 (13.6 μM) was included as positive control and DMSO as negative control. Percentage of mortality was determined at 48 h of exposure.

[1] = Luminescent Vibrio fischeri ecotoxicity assay (ISO11348); type: cell-based; conditions: luminescent Vibrio fischeri bacteria (NRRL-B-11177), contact time of 30 min, read-out: LC50 (inhibition of light radiation emitted)
Protocol: Luminescent Vibrio fischeri ecotoxicity assessment (ISO11348) was performed by IK4 TEKNIKER accordingly to the EU hazard assessment of substances and European Ecolabel (ISO 113482). Luminescent Vibrio fischeri bacteria test (NRRL-B-11177) was used as a standard test to evaluate the ecotoxicity of the most promising AF compounds. Vibrio fischeri bacteria from HACH-LANGE GmbH were grown in laboratory in standard conditions according to guidelines and exposed to a dilution serial of each compound (1000, 500, 250, 125, 62.5 mg/L). After 5, 15 and 30 min of exposure, the light emitted as a by-product of Vibrio fischeri cellular respiration was measured at 490 nm. Any inhibition of cellular activity results in a decreased rate of respiration and a corresponding decrease in the rate of luminescence. The decrease of bacterial luminescence measured after 5, 15 or 30 min of exposition was used as test endpoint. Luminescence was measured using a LUMIStox photometer from DR LANGE, after a contact time of 15 min and 30 min at 15±1° C., taking into account a correction factor, fk, which is a measure of intensity change of control samples during the exposure time.
The pH of all samples was within the interval 6.0-8.5. A 2% solution of sodium chloride (NaCl) in deionized water (20 g/L) was used as dilution medium and K2Cr2O7 11.3 μg·mL^−1) was used as positive control.

[2] = system: Phaeodactylum tricornutum; test: Algae growth inhibition test (OECD 201); type: cell-based
Protocol: This test was executed using […], which contains all the material necessary to perform growth inhibition tests with the marine diatom Phaeodactylum Tricornutum. The species of alga Phaeodactylum Tricornutum, were incubated with the testing leaching samples, for 72 hours, in disposable cells of 10 cm path-length. […] This terminology is used instead of the standard EC50 when the test material is not completely soluble at the test treat rates.

[3] = system: Mytilus galloprovincialis larvae; test: Anti-settlement bioassay on xanthonic based marine coatings; type: in vivo; conditions: for reduction in the larvae settlement: incorporated in polyurethane (PU) marine paint at 2 wt %; for reduction of larval settlement: polyurethane based marine paint coating (1.7 wt. %)
Protocol: None instead, and depending on the xanthonic chemical functionalities and density, minor adjustments on those proportions were performed, in order to maintain the main coatings properties (e.g. curing time and adhesion). In addition, and to promote the compatibility and homogeneity of the antifoulants in the corresponding polymeric formulations, a prior dissolution step, in accurate pure and dehumidified organic solvents, may be comprised, followed by its addition and blending to the paint components system. The selection and content of the organic solvent must also rely on its compatibility with the components of each polymeric system.
The antifouling effectiveness of xanthonic based marine coating formulations was assessed by an in vivo anti-settlement bioassay on coated culture multiwell plates, using Mytilus galloprovincialis adhesive mussel plantigrades larvae as target species.

[4] = Leaching test of antifoulant from coatings (adapted from ISO15181); type: physicochemical; conditions: PU coating, 45 days submerged in artificial seawater
Daphnia magna = test: Daphnia acute immobilization test (OECD 202); type: in vivo
Protocol: This test was performed using DAPHTOXKIT F MAGNATM. Daphnia magna are commonly known as water fleas, due to their jumping swimming resemblance to the movement of the fleas. Its short life span and reproductive capabilities make it an ideal organism for analytical use.
The swimming capability of Daphnia Magna was assessed after 48 hours of exposure to the diluted testing samples. The Daphnia were bred in the laboratory and should be no more than 24 hours old. The number of immobilized Daphnia was registered at 24 hours and 48 hours, for the calculation of EL50 and comparison with the control values. The EL50 is the effective concentration of the sample that is expected to cause immobilization to 50% of Daphnia.
Note that for this toxicity test, the leaching was obtained only from the WAF method test using the samples and Daphnia's mineral medium as […] because standard seawater is harmful to Daphnia.

With COC(=O)COc1ccc2c(=O)c3ccccc3oc2c1OCC(=O)OC [D3,4 OCH3X, dimethyl 2,2′-((9-oxo-9H-xanthene-3,4-diyl)bis(oxy))diacetate] the “toxicity to Artemia salina nauplii” value (Artemia salina) was “non-toxic effects”.

In the case of COc1cc(CN2CCCCC2)c2c(=O)c3ccccc3oc2c1OC [XA22, 3,4-dimethoxy-1-(piperidin-1-ylmethyl)-9H-xanthen-9-one], the “toxicity to Artemia salina nauplii” value (Artemia salina) is reported as “non-toxic effects”.

In the case of O=C(O)COc1ccc2c(=O)c3ccccc3oc2c1OCC(=O)O [D3,4 COOHX, 2,2′-((9-oxo-9H-xanthene-3,4-diyl)bis(oxy))diacetic acid], the “toxicity to Artemia salina nauplii” value (Artemia salina) is reported as “non-toxic effects”.

For CC1(C)CCc2cc3c(=O)c4ccccc4oc3c(O)c2O1 [XP13, 12-hydroxy-2,2-dimethyl-3,4-dihydro-2H,6H-pyrano[3,2-b]xanthen-6-one], the “toxicity to Artemia salina nauplii” value (Artemia salina) was “non-toxic effects” and the 50% inhibition of luminescence concentration (EC50) at 30 min [1] was greater than 237 µg/mL.

With COc1cc(CN2CCN(CCO)CC2)c2c(=O)c3ccccc3oc2c1OC [XA18, 1-((4-(2-hydroxyethyl)piperazin-1-yl)methyl)-3,4-dimethoxy-9H-xanthen-9-one] the “toxicity to Artemia salina nauplii” value (Artemia salina) was “non-toxic effects”.

For O=c1c2ccccc2oc2c(O)c(O)ccc12 [3,4dOHx, 3,4-dihydroxy-9H-xanthen-9-one], the “toxicity to Artemia salina nauplii” value (Artemia salina) was “non-toxic effects”, the 50% inhibition of luminescence concentration (EC50) at 30 min [1] was greater than 750 µg/mL and the “EL50 (72 h) alga growth inhibition” value [2] was greater than 100 µg/mL. For the same molecule, the “reduction in the larvae settlement” value ([3]; after 40 h) was “about 80%”, the “reduction in the larvae settlement” value ([3]; after the first 15 h) was 55% and the “incorporated antifoulant leached out of the polymeric matrix” value [4] was 0.008%.

In the case of COc1cc(CNCCN2CCOCC2)c2c(=O)c3ccccc3oc2c1OC [XA15, 3,4-dimethoxy-1-(((2-morpholinoethyl)amino)methyl)-9H-xanthen-9-one], the “toxicity to Artemia salina nauplii” value (Artemia salina) is reported as “non-toxic effects”.

With COc1cc(C(Br)Br)c2c(=O)c3ccccc3oc2c1OC [XA14, 1-(dibromomethyl)-3,4-dimethoxy-9H-xanthen-9-one] the “toxicity to Artemia salina nauplii” value (Artemia salina) was “non-toxic effects”.

With COc1cc(C)c2c(=O)c3ccccc3oc2c1OC [XA13, 3,4-dimethoxy-1-methyl-9H-xanthen-9-one] the “reduction of larval settlement” value ([3]; after 40 h) was 29% and the “reduction of larval settlement” value ([3]; first 15 h) was 50%.

For COc1cc(CO)c2c(=O)c3ccccc3oc2c1OC [XA12, 1-(hydroxymethyl)-3,4-dimethoxy-9H-xanthen-9-one], the “toxicity to Artemia salina nauplii” value (Artemia salina) was “non-toxic effects”.

For COc1cc(CN2CCc3c(N)cccc3C2)c2c(=O)c3ccccc3oc2c1OC [XA20, 1-((5-amino-3,4-dihydroisoquinolin-2(1H)-yl)methyl)-3,4-dimethoxy-9H-xanthen-9-one], the 50% inhibition of luminescence concentration (EC50) at 30 min [1] was greater than 300 µg/mL, the “EL50 (72 h) alga growth inhibition” value [2] was greater than 125 µg/mL and the “EL50 (48 h) immobility” value (Daphnia magna) was greater than 300 µg/mL.

With COc1cc(C=O)c2c(=O)c3ccccc3oc2c1OC [XA11, 3,4-dimethoxy-9-oxo-9H-xanthene-1-carbaldehyde] the “toxicity to Artemia salina nauplii” value (Artemia salina) was “non-toxic effects”.
